Experimental data: patent US5516790A, “Synthesis and application of alkyl-substituted dibenzofurans as antitumorigenic agents” (Texas A&M University System Technology Licensing Office, priority 1994, dated 1996)
Read-outs that look alike come from different tables or passages of the source.

Key:
160-kDa protein = details: Biegel and Safe, 1990; cited from earlier work
estrogen receptor = assay: Uterine and hepatic estrogen receptor levels (literature); type: in vivo, rat; details: in comparison to control test animals, rats and mice
AHH and EROD induction [1] = assay: TCDD antagonism / Ah receptor agonist activity (AHH and EROD induction)
AHH and EROD induction [2] = details: previous studies; cited from earlier work
EGF receptor = details: cited from earlier work
[3] = test system: progesterone receptor (PR); assay: Uterine progesterone receptor levels, hydroxyapatite assay (Example 8); type: in vivo, female Sprague-Dawley rats; details: run A
uterus [4] = assay: Uterine wet weights in mice (summary); type: in vivo; details: in comparison to control
uterus [5] = assay: Uterine wet weight / uterotrophic effects (literature, summary); type: in vivo, rat; details: rats, in comparison to control
nuclear ER = assay: Nuclear ER levels in MCF-7 cells; type: cell-based, human; details: for nuclear ER levels: TCDD (10 nM), MCDF (100 nM)
Procedure: MCF-7 cells, obtained from American Type Culture Collection (Rockville, Ma.), were maintained at 37° C. in closed Corning T-25, 75 or 150 cm^2 flasks (Corning Glassworks, Corning, N.Y.) and passaged in logarithmic growth phase.
For the 2,3,7,8-TCDD antiestrogenicity studies, cells were treated 24 hours prior to harvesting with various concentrations of 2,3,7,8-TCDD (0.1 nM to 100 nM 2,3,7,8-TCDD). Interactive effects between 2,3,7,8-TCDD and estradiol were conducted using these same concentrations of 2,3,7,8-TCDD and 10 nM estradiol. […]
MCF-7 cells from a single near confluent T-25 flask were incubated at 37° C. for 0.5 hours prior to harvesting with 10 nM 2,4,6,7-[^3H]-estradiol. The medium was then decanted and the cells were rinsed once with Hanks' balanced salt solution containing 1 mM EDTA. The cells were collected by centrifugation, washed gently in 2 ml of TEDG buffer and homogenized in 300 μl of TEDG buffer containing protease inhibitors [soybean trypsin inhibitor 5 mg/ml (Sigma), leupetin 1 mg/ml (Sigma), and phenylmethylsulfonyl fluoride 1 mg/ml (Sigma) by 40 strokes of a Dounce homogenizer. The homogenate was centrifuged at 800×g for 10 minutes. The crude nuclear pellet was resuspended in 300 μl of TEDGK buffer (10 mM Tris-HCl, 1.5 mM EDTA-4Na, 10 mM dithiothreitol, 10% (v/v) glycerol, 0.8 M KCl, pH 8.5 at 4° C.). The nuclear ER levels were then determined as described below.
The nuclear extract previously obtained was incubated with 10 nM [^3 H]-estradiol plus or minus radioinert diethylstilbestrol for 1 hour at 0-4° C., with resuspension by agitation every 15 minutes. The sample was then centrifuged at 180,000×g for 30 minutes, then 200 μl of the supernatant obtained was layered onto linear 1-20% sucrose gradients prepared in TEDGMK buffer. As before, the gradients were centrifuged at 406,000×g for 2.5 hours in a vertical rotor. Following centrifugation, 30 fractions of […] were collected and the radioactivity in each sample was determined.

[6] = test system: MCF-7 human breast cancer cells; assay: Growth of MCF-7 human breast cancer cells; type: cell-based; details: MCDF
Ah receptor = assay: Binding affinity for the Ah receptor
estrogen receptor (ER) = assay: Uterine estrogen receptor levels, hydroxyapatite assay (Example 8); type: in vivo, female Sprague-Dawley rats; details: run A
52-kDa protein = details: Biegel and Safe, 1990; cited from earlier work
[7] = test system: tissue plasminogen activator; details: MCF-7 human breast cancer cells; cited from earlier work
[8] = in vivo; cited from earlier work
uterus [9] = details: cited from earlier work
uterus [10] = details: weanling female C57BL/6 mice; cited from earlier work
[11] = test system: mammary and uterine tumors; details: long term feeding studies; cited from earlier work
MDA-MB-231 cell line = details: cited from earlier work
[12] = 150 μmol/kg + E-2 (2 × 10 μg/rat)
[13] = compound alone, 150 μmol/kg (17β-estradiol: 2 × 10 μg/rat)

For `Cc1cc(Cl)cc2c1oc1cc(Cl)cc(Cl)c12` [MCDF, 6-methyl 1,3,8-trichlorodibenzofuran], the “17β-estradiol-induced secretion of the 160-kDa protein” value (160-kDa protein) is given as “inhibits”, the “nuclear and cytosolic hepatic and uterine estrogen receptors” value (estrogen receptor) is given as “decreases” and the “agonist for Ah receptor mediated response” value (AHH and EROD induction [1]) is given as “poor agonist”. For the same molecule, the “antagonist to the activities of TCDD” value (AHH and EROD induction [2]) was “antagonist”, the “17β-estradiol-induced increased EGF receptor binding and mRNA levels” value (EGF receptor) was “inhibits” and the “Progesterone Receptor Levels, Cytosolic” value [3, 12] was 1203 ± 110 fmol/mg protein. For the same molecule, the “Progesterone Receptor Levels, Nuclear” value [3, 12] was 435 ± 91 fmol/mg protein, the “Progesterone Receptor Levels, Cytosolic” value [3, 13] was 915 ± 63 fmol/mg protein and the “Progesterone Receptor Levels, Nuclear” value [3, 13] was 312 ± 50 fmol/mg protein. The uterine wet weights (uterus [4]) was “decreases”, the uterine wet weights (uterus [5]) was “decreases” and the ERn (nuclear ER; 2,3,7,8-TCDD (10 nM) + MCDF (15 μM)) was 147.5(9.6) fmol/mg protein. The ERn (nuclear ER; 2,3,7,8-TCDD (10 nM) + MCDF (50 μM)) was 136.0(14.7) fmol/mg protein, the ERn (nuclear ER; 2,3,7,8-TCDD (10 nM) + MCDF (75 μM)) was 133.1(10.4) fmol/mg protein and the ERn (nuclear ER; 2,3,7,8-TCDD (10 nM) + MCDF (100 μM)) was 123.1(7.1) fmol/mg protein. For the same molecule, the ERn (nuclear ER; 2,3,7,8-TCDD (10 nM) + MCDF (150 μM)) was 129.3(2.9) fmol/mg protein, the ERn (nuclear ER; 2,3,7,8-TCDD (25 nM) + MCDF (15 μM)) was 146.9(9.6) fmol/mg protein and the ERn (nuclear ER; 2,3,7,8-TCDD (25 nM) + MCDF (50 μM)) was 85.5(16.5) fmol/mg protein. For the same molecule, the ERn (nuclear ER; 2,3,7,8-TCDD (25 nM) + MCDF (75 μM)) was 91.3(9.7) fmol/mg protein, the ERn (nuclear ER; 2,3,7,8-TCDD (25 nM) + MCDF (100 μM)) was 100.5 (10.4) fmol/mg protein and the ERn (nuclear ER; 2,3,7,8-TCDD (25 nM) + MCDF (150 μM)) was 108.1(18.1) fmol/mg protein. For the same molecule, the “ERn levels in MCF-7 cells” value (nuclear ER; MCDF) was “significantly decreased”, the ERn (nuclear ER; MCDF alone (15 μM)) was 207.5 (6.6) fmol/mg protein and the ERn (nuclear ER; MCDF alone (50 μM)) was 171.6 (13.7) fmol/mg protein. The ERn (nuclear ER; MCDF alone (100 μM)) was 135.8 (4.5) fmol/mg protein, the ERn (nuclear ER; MCDF alone (150 μM)) was 114.2 (7.9) fmol/mg protein and the “ERn levels, combined treatment vs either 2,3,7,8-TCDD or MCDF” value (nuclear ER; MCDF plus 2,3,7,8-TCDD) was “not significantly different”. For the same molecule, the “combined effects on ERn levels in MCF-7 cells” value (nuclear ER; MCDF plus 2,3,7,8-TCDD) was “clearly not additive”, the “nuclear ER levels” value (nuclear ER) was “decrease in nuclear ER levels” and the ERn (nuclear ER; alone (75 μM)) was 141.8 (13.6) fmol/mg protein. The ERn (nuclear ER; estradiol (10 nM) + 2,3,7,8-TCDD (10 nM) plus MCDF (15 nM)) was 133.1 (14.3) fmol/mg protein, the ERn (nuclear ER; estradiol (10 nM) + 2,3,7,8-TCDD (10 nM) plus MCDF (50 μM)) was 122.3 (5.5) fmol/mg protein and the ERn (nuclear ER; estradiol (10 nM) + 2,3,7,8-TCDD (10 nM) plus MCDF (100 μM)) was 125.5 (9.7) fmol/mg protein. The ERn (nuclear ER; estradiol (10 nM) + 2,3,7,8-TCDD (25 nM) plus MCDF (15 μM)) was 132.6 (2.1) fmol/mg protein, the ERn (nuclear ER; estradiol (10 nM) + 2,3,7,8-TCDD (25 nM) plus MCDF (50 μM)) was 130.5 (5.3) fmol/mg protein and the ERn (nuclear ER; estradiol (10 nM) + 2,3,7,8-TCDD (25 μM) plus MCDF (100 μM)) was 123.8 (8.3) fmol/mg protein. The ERn (nuclear ER; estradiol (10 nM) + MCDF (15 μM)) was 113.4 (3.9) fmol/mg protein, the ERn (nuclear ER; estradiol (10 nM) + MCDF (50 μM)) was 103.4 (17.6) fmol/mg protein and the ERn (nuclear ER; estradiol (10 nM) + MCDF (100 μM)) was 106.4 (7.9) fmol/mg protein. The “17β-estradiol-induced growth of MCF-7 cells” value [6] was “inhibits”, the “Ah receptor binding activity” value (Ah receptor) was “relatively high” and the “Estrogen Receptor Levels, Cytosolic” value (estrogen receptor (ER); [12]) was 78.9 ± 79.1 fmol/mg protein. For the same molecule, the “Estrogen Receptor Levels, Nuclear” value (estrogen receptor (ER); [12]) was 43.3 ± 73.4 fmol/mg protein, the “Estrogen Receptor Levels, Cytosolic” value (estrogen receptor (ER); [13]) was 55.1 ± 0.9 fmol/mg protein and the “Estrogen Receptor Levels, Nuclear” value (estrogen receptor (ER); [13]) was 49.3 ± 10.2 fmol/mg protein. For the same molecule, the “17β-estradiol-induced secretion of the 52-kDa protein” value (52-kDa protein) was “inhibits”.

In the case of `Clc1cc2c(cc1Cl)Oc1cc(Cl)c(Cl)cc1O2` [TCDD, 2,3,7,8-tetrachloridibenzo-p-dioxin], the “estrogen mediated excretion of tissue plasminogen activator activity” value [7] is listed as “suppressed”, the hepatocarcinogenicity [8] is listed as “so hepatocarcinogenic” and the “estrogenic effects of 17β-estradiol on uterine weights” value (uterus [9]; TCDD with 17β-estradiol) is listed as “partially blocked”. For the same molecule, the uterine weights (uterus [9]; female Long Evans rats) was “decreased”, the uterine weights (uterus [10]) was “decreased” and the “spontaneous development of mammary and uterine tumors” value [11] was “significantly decreased”. For the same molecule, the “secretion of the 34-, 52- and 160-kDa proteins” value (MDA-MB-231 cell line; TCDD plus 17β-estradiol) was “did not affect”, the “secretion of the 34-, 52- and 160-kDa proteins” value (MDA-MB-231 cell line; compound alone) was “did not affect” and the “nuclear ER levels” value (nuclear ER) was “decrease in nuclear ER levels”.
